One experiment has as its target T1, 229E Mpro (Human coronavirus 229E, UniProt P0C6X1).
T1 construct: 229E Mpro
The experiment in a line: 229E Mpro assay (Table 3). It is filed as biochemical, HCoV 229E.

In the next experiment the target is SARS-CoV2 Mpro (Severe acute respiratory syndrome coronavirus 2, UniProt P0DTD1). The experiment in a line: SARS-CoV2 Mpro enzymatic assay. It is filed as biochemical. The conditions noted are these: 25 nM Mpro, 25 μM substrate.

This passage reports EC50 and IC50 results from patent publication US20230212152A1, “INHIBITORS OF CYSTEINE PROTEASES AND METHODS OF USE THEREOF” (priority 2020, published 2023).

Structures are written as SMILES. Read-outs that look alike come from different tables or passages of the source.

T1 sequence (P0C6X1 2966-3267): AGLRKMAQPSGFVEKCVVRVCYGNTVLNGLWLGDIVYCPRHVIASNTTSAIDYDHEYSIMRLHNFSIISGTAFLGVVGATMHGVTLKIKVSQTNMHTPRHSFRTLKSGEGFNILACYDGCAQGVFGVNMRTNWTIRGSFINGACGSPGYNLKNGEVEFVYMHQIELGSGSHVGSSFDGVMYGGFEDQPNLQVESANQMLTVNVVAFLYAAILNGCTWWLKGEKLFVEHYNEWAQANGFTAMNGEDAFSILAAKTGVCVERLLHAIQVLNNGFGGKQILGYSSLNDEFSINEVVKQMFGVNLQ
Experimental for 229E Mpro: Compounds are assayed using standard methods to assess compound activity and IC50. […] The assay buffer contains 20 mM of Tris-HCl (pH 7.3), 100 mM of NaCl, 1 mM of EDTA, 5 mM of TCEP and 0.1% BSA.

For orientation: EC50 means the concentration giving half of the maximal effect. For `COc1cccc2[nH]c(C(=O)N[C@@H](CC3CC3)C(=O)N[C@H](C#N)C[C@@H]3CCCNC3=O)cc12` (single isomer, unassigned) [271A (Isomer 1)], on 229E Mpro (read-out: 229E Mpro EC50), the EC50 is greater than 30 µM.
Still for that read-out and setting: the figure for `COc1cccc2[nH]c(C(=O)N3CC4(CCC4)CC3C(=O)N[C@H](C#N)C[C@@H]3CCNC3=O)cc12` (single isomer, unassigned) [399A (Isomer 2)] is 10 to 30 µM; for `Cc1ccn([C@H](CC2CC2)C(=O)N[C@H](C#N)C[C@@H]2CCNC2=O)c(=O)c1NCC(F)(F)F` (single isomer, unassigned) [451 (Isomer 1)] it is greater than 30 µM.
`Cc1ccn(C(CC2CC2)C(=O)N[C@H](C#N)C[C@@H]2CCNC2=O)c(=O)c1NCC(F)(F)F` (single isomer, unassigned) [451 (Isomer 2)]: on 229E Mpro (229E Mpro EC50), the EC50 fell in the range of 10 to 30 µM.
Same read-out and setting: the figure for `N#CC(CC1CCNC1=O)NC(=O)C1CCc2ccc(NCC(=O)Oc3ccccc3)c(=O)n21` (single isomer, unassigned) [483 (Isomer 2)] is greater than 30 µM; for `COc1cccc2[nH]c(C(=O)N[C@@H](CC3CC3)C(=O)N[C@H](C#N)C[C@@H]3CCCNC3=O)cc12` (single isomer, unassigned) [491A (Isomer 1)] it is greater than 30 µM.
Turning to `COc1cccc2[nH]c(C(=O)N3C[C@H]4CC[C@H]4[C@@H]3C(=O)N[C@H](C#N)C[C@@H]3CCNC3=O)cc12` (single isomer, unassigned) [547 (Isomer 2)], at 229E Mpro (read-out: 229E Mpro EC50), the EC50 is less than 2 µM.
In the case of `Cc1ccn([C@H](CC2CC2)C(=O)N[C@H](C#N)C[C@@H]2CCNC2=O)c(=O)c1NC(=O)OC(C)(C)C` (single isomer, unassigned) [591 (Isomer 1)], the EC50 on 229E Mpro (read-out: 229E Mpro EC50) is greater than 30 µM.
Still for that read-out and setting: the figure for `COc1cccc2[nH]c(C(=O)N3CC4(CCCCC4)CC3C(=O)N[C@H](C#N)C[C@@H]3CCCNC3=O)cc12` (single isomer, unassigned) [603a (Isomer 2)] is greater than 30 µM.
One may read the IC50 as the midpoint of a concentration-inhibition curve. A high value points to a need for much substance. Turning to `COc1cc(Cl)c2[nH]c(C(=O)N3CC4(CCCCC4)CC3C(=O)N[C@H](C#N)C[C@@H]3CCNC3=O)cc2c1` (single isomer, unassigned) [896 (Isomer 1)], at SARS-CoV2 Mpro, the IC50 was less than 2 µM. Besides, the EC50 at 229E Mpro (read-out: 229E Mpro EC50) is less than 2 µM.
In turn, `COc1cc(Cl)c2[nH]c(C(=O)N3CC4(CCCCC4)CC3C(=O)N[C@H](C#N)C[C@@H]3CCNC3=O)cc2c1` (single isomer, unassigned) [896 (Isomer 2)] returned an IC50 on SARS-CoV2 Mpro greater than 30 µM. The EC50 on 229E Mpro (read-out: 229E Mpro EC50) is greater than 30 µM.
For the compound `CC1(C)CC(C[C@@H](C#N)NC(=O)[C@H](CC2CC2)NC(=O)c2cc3cccc(Cl)c3[nH]2)C(=O)N1` (single isomer, unassigned) [1053 (Isomer 2)], the EC50 at 229E Mpro (read-out: 229E Mpro EC50) was 10 to 30 µM.
For the compound `CC(C)(C)[C@H](NC(=O)C(F)(F)F)C(=O)N1CC2(CCC2)CC1C(=O)N[C@H](C#N)C[C@@H]1CC2(CC2)NC1=O` (single isomer, unassigned) [3039a (Isomer 1)], on SARS-CoV2 Mpro, the IC50 is less than 2 µM. In addition, at 229E Mpro (229E Mpro EC50), the EC50 lay in the range of 2 to 10 µM.
For `CC1(C)C[C@@H](C[C@@H](C#N)NC(=O)C2CC3(CCC3)CN2C(=O)[C@@H](NC(=O)C(F)(F)F)C(C)(C)C)C(=O)N1` (single isomer, unassigned) [3071a (Isomer 1)] the same measures were less than 2 µM and 2 to 10 µM.
For `CC1(C)C[C@@H](C[C@@H](C#N)NC(=O)C2CC3(CCC3)CN2C(=O)[C@@H](NC(=O)C(F)(F)F)C(C)(C)C)C(=O)N1` (single isomer, unassigned) [3071a (Isomer 2)] the same measures were greater than 30 µM and greater than 30 µM.
For `CC1(C)C[C@@H](C[C@@H](C#N)NC(=O)[C@@H]2[C@@H]3[C@H](CN2C(=O)[C@@H](NC(=O)C(F)(F)F)C(C)(C)C)C3(C)C)C(=O)N1` (single isomer, unassigned) [3075 (Isomer 1)] the same measures were less than 2 µM and greater than 30 µM.
Take `CC1(C)C[C@@H](C[C@@H](C#N)NC(=O)[C@@H]2[C@@H]3[C@H](CN2C(=O)[C@@H](NC(=O)C(F)(F)F)C(C)(C)C)C3(C)C)C(=O)N1` (single isomer, unassigned) [3075 (Isomer 2)]: at SARS-CoV2 Mpro, the IC50 is less than 2 µM. The compound also returned an EC50 on 229E Mpro (229E Mpro EC50) of 10 to 30 µM.
Turning to `COc1cccc2[nH]c(C(=O)N[C@H](CC3CC3)C(=O)N[C@H](C#N)C[C@@H]3CCCNC3=O)cc12` (single isomer, unassigned; isomer 2) [491A (Isomer 2)], the EC50 on 229E Mpro (read-out: 229E Mpro EC50) is less than 2 µM.
On the same count and under the same terms, the figure for `COc1cccc2[nH]c(C(=O)N3C[C@H](C4CCCCC4)C[C@H]3C(=O)N[C@H](C#N)C[C@@H]3CCNC3=O)cc12` [Compound 167, (2S,4S)-N-((S)-1-cyano-2-((S)-2-oxopyrrolidin-3-yl)ethyl)-4-cyclohexyl-1-(4-methoxy-1H-indole-2-carbonyl)pyrrolidine-2-carboxamide] is 2 to 10 µM.
For `N#C[C@H](C[C@@H]1CCNC1=O)NC(=O)[C@@H]1CS[C@H]2CC[C@H](NCC(F)(F)F)C(=O)N21` [Compound 455, (3R,6S,8aS)-N-[(1S)-1-cyano-2-[(3S)-2-oxopyrrolidin-3-yl]ethyl]-5-oxo-6-(2,2,2-trifluoroethylamino)-2,3,6,7,8,8a-hexahydrothiazolo[3,2-a]pyridine-3-carboxamide], the EC50 at 229E Mpro (read-out: 229E Mpro EC50) was greater than 30 µM.
On to `N#C[C@H](C[C@@H]1CCNC1=O)NC(=O)[C@@H]1CCc2ccc(NCC(=O)O)c(=O)n21` [Compound 501, 2-[[(3S)-3-[[(1S)-1-cyano-2-[(3S)-2-oxopyrrolidin-3-yl]ethyl]carbamoyl]-5-oxo-2,3-dihydro-1H-indolizin-6-yl]amino]acetic acid], for which, at 229E Mpro (read-out: 229E Mpro EC50), the 50% effective concentration (EC50) is greater than 30 µM.
With `CC(C)(C)C[C@H](NC(=O)[C@@H](NC(=O)C(F)(F)F)C(C)(C)C)C(=O)N[C@H](C#N)C[C@@H]1CC2(CC2)NC1=O` [Compound 3037], the IC50 at SARS-CoV2 Mpro was less than 2 µM. The same compound yielded an EC50 at 229E Mpro (229E Mpro EC50) of less than 2 µM.
As for `CC(C)(C)[C@H](NC(=O)C(F)(F)F)C(=O)N1CC2(CCC2)CC1C(=O)N[C@H](C#N)C[C@@H]1CC2(CC2)NC1=O` (stereo partly drawn) [Compound 3039b], the half-maximal inhibitory concentration (IC50) against SARS-CoV2 Mpro is less than 2 µM. Besides, the EC50 on 229E Mpro (229E Mpro EC50) is less than 2 µM.
`CC(C)(C)[C@H](NC(=O)C(F)(F)F)C(=O)N1CC2(CCCCC2)C[C@H]1C(=O)N[C@H](C#N)C[C@@H]1CC2(CC2)NC1=O` [Compound 3041] displayed an IC50 against SARS-CoV2 Mpro of less than 2 µM. Also, the half-maximal effective concentration (EC50) at 229E Mpro (229E Mpro EC50) is less than 2 µM.
`CC(C)(C)[C@H](NC(=O)C(F)(F)F)C(=O)N1C[C@H]2[C@@H]([C@H]1C(=O)N[C@H](C#N)C[C@@H]1CC3(CC3)NC1=O)C2(C)C` [Compound 3043] came in with an IC50 at SARS-CoV2 Mpro of less than 2 µM. Further, the EC50 on 229E Mpro (229E Mpro EC50) is less than 2 µM.
Take `CC(C)(C)[C@H](NC(=O)C(F)(F)F)C(=O)N[C@@H](CC1CC1(F)F)C(=O)N[C@H](C#N)C[C@@H]1CC2(CC2)NC1=O` (stereo partly drawn) [Compound 3045]: the 50% inhibitory concentration (IC50) at SARS-CoV2 Mpro is less than 2 µM. At 229E Mpro (229E Mpro EC50), this compound yielded an EC50 of less than 2 µM.
As for `CC1(C)C[C@@H](C[C@@H](C#N)NC(=O)[C@H](CC2CC2)NC(=O)[C@@H](NC(=O)C(F)(F)F)C(C)(C)C)C(=O)N1` [Compound 3065, (S)-N-((S)-1-(((S)-1-cyano-2-((R)-5,5-dimethyl-2-oxopyrrolidin-3-yl)ethyl)amino)-3-cyclopropyl-1-oxopropan-2-yl)-3,3-dimethyl-2-(2,2,2-trifluoroacetamido)butanamide], the IC50 against SARS-CoV2 Mpro was less than 2 µM. For the same compound, the EC50 at 229E Mpro (229E Mpro EC50) is greater than 30 µM.
For `CC(C)(C)C[C@H](NC(=O)[C@@H](NC(=O)C(F)(F)F)C(C)(C)C)C(=O)N[C@H](C#N)C[C@@H]1CC(C)(C)NC1=O` [Compound 3069, (S)-N-((S)-1-cyano-2-((R)-5,5-dimethyl-2-oxopyrrolidin-3-yl)ethyl)-2-((S)-3,3-dimethyl-2-(2,2,2-trifluoroacetamido)butanamido)-4,4-dimethylpentanamide] the same measures were less than 2 µM and greater than 30 µM.
`CC1(C)C[C@@H](C[C@@H](C#N)NC(=O)[C@@H]2CC3(CCCCC3)CN2C(=O)[C@@H](NC(=O)C(F)(F)F)C(C)(C)C)C(=O)N1` [Compound 3073, (3S)-N-[(1S)-1-cyano-2-[(3R)-5,5-dimethyl-2-oxo-pyrrolidin-3-yl]ethyl]-2-[(2S)-3,3-dimethyl-2-[(2,2,2-trifluoroacetyl)amino]butanoyl]-2-azaspiro[4.5]decane-3-carboxamide] yielded an IC50 against SARS-CoV2 Mpro of less than 2 µM. Also, the EC50 at 229E Mpro (229E Mpro EC50) is 2 to 10 µM.
For `CC1(C)C[C@@H](C[C@@H](C#N)NC(=O)[C@@H]2[C@@H]3[C@H](CN2C(=O)[C@@H](NC(=O)C(F)(F)F)C(C)(C)C)C3(C)C)C(=O)N1` [Compound 3075, (1R,2S,5S)-N-((S)-1-cyano-2-((R)-5,5-dimethyl-2-oxopyrrolidin-3-yl)ethyl)-3-((S)-3,3-dimethyl-2-(2,2,2-trifluoroacetamido)butanoyl)-6,6-dimethyl-3-azabicyclo[3.1.0]hexane-2-carboxamide] the same measures were less than 2 µM and 10 to 30 µM.
For `CC(C)(C)C[C@H](NC(=O)[C@@H](NC(=O)C(F)(F)F)C(C)(C)C)C(=O)N[C@H](C#N)C[C@@H]1CCCNC1=O` [Compound 3129, (S)-N-((S)-1-cyano-2-((S)-2-oxopiperidin-3-yl)ethyl)-2-((S)-3,3-dimethyl-2-(2,2,2-trifluoroacetamido)butanamido)-4,4-dimethylpentanamide] the same measures were less than 2 µM and less than 2 µM.
For `CN(C(=O)[C@@H](NC(=O)C(F)(F)F)C(C)(C)C)[C@@H](CC1CC1)C(=O)N[C@H](C#N)C[C@@H]1CCCNC1=O` [Compound 3131] the same measures were less than 2 µM and 10 to 30 µM.
The compound `CC(C)(C)[C@H](NC(=O)C(F)(F)F)C(=O)N1C[C@H]2[C@@H]([C@H]1C(=O)N[C@H](C#N)C[C@@H]1CCCNC1=O)C2(C)C` [Compound 3133, (1R,2S,5S)-N-[(1S)-1-cyano-2-[(3S)-2-oxo-3-piperidyl]ethyl]-3-[(2S)-3,3-dimethyl-2-[(2,2,2-trifluoroacetyl)amino]butanoyl]-6,6-dimethyl-3-azabicyclo[3.1.0]hexane-2-carboxamide] returned an IC50 on SARS-CoV2 Mpro of less than 2 µM. For the same compound, the concentration giving a half-maximal response (EC50) at 229E Mpro (229E Mpro EC50) was less than 2 µM.
As to `CC(C)(C)[C@H](NC(=O)C(F)(F)F)C(=O)N1C[Si](C)(C)C[C@H]1C(=O)N[C@H](C#N)C[C@@H]1CC2(CC2)NC1=O` [Compound 3135], the IC50 at SARS-CoV2 Mpro is less than 2 µM. Besides, at 229E Mpro (read-out: 229E Mpro EC50), the EC50 was less than 2 µM.
